Like-named read-outs stand apart in the source and are kept apart here.
Key:
HDAC1 = HDAC1 (Homo sapiens, UniProt Q13547); assay: HDAC biochemical activity measurement (fluorescent substrate deacetylation);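 note: fluorogenic acetyl-lysine substrate (20 µM) deacetylated by HDAC1, then developer releases fluorophore read at 360 nm excitation and 460 nm emission, inhibitor incubated 30 min at 37 °C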
[1] = system: Huh-7 (human hepatoma cells); assay: MTT cancer cell growth inhibition; format: cell-based; conditions: MTT, 72 hours incubation, Huh-7 cells, read-out: GI50 Huh-7
How it was run: (§1)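 Cells grown in DMEM or RPMI 1640 with 10% FBS were seeded at 1500/well and left overnight at 37° C., 5% CO2. Compounds at final 10^−5 to 10^−10 M were added in triplicate for 72 h. MTT was then added for 4 h, formazan dissolved in DMSO, and absorbance read at 570 nm to derive GI50.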

[2] = system: KBM-5 (human chronic myelogenous leukemia); assay: MTT cancer cell growth inhibition; format: cell-based; conditions: MTT, 72 hours incubation, KBM-5 cells, read-out: GI50 KBM-5
How it was run: as §1

[3] = system: SGC-7901 (human gastric cancer cells); assay: MTT cancer cell growth inhibition; format: cell-based; conditions: MTT, 72 hours incubation, SGC-7901 cells, read-out: GI50 SGC-7901
How it was run: as §1

[4] = system: KBM5-T315I (human chronic myelogenous leukemia); assay: MTT cancer cell growth inhibition; format: cell-based; conditions: MTT, 72 hours incubation, KBM5-T315I cells, read-out: GI50 KBM5-T315I
How it was run: as §1

[5] = system: HT1080 (human fibrosarcoma cells); assay: MTT cancer cell growth inhibition; format: cell-based; conditions: MTT, 72 hours incubation, read-out: GI50 HT1
How it was run: as §1

[6] = system: BGC-823 (human gastric cancer cells); assay: MTT cancer cell growth inhibition; format: cell-based; conditions: MTT, 72 hours incubation, read-out: GI50 BG
How it was run: as §1

[7] = system: N-87 (human gastric cancer cells); assay: MTT cancer cell growth inhibition; format: cell-based; conditions: MTT, 72 hours incubation, N-87 cells, read-out: GI50 N-87
How it was run: as §1

[8] = system: MDA-MB-231 (breast cancer cells); assay: MTT cancer cell growth inhibition; format: cell-based
How it was run: as §1

[9] = system: Hela (human cervical cancer cells); assay: MTT cancer cell growth inhibition; format: cell-based; conditions: MTT, 72 hours incubation, read-out: GI50 Hela
How it was run: as §1

HDAC8 = biological target: T1, HDAC8 (Homo sapiens, UniProt Q9BY41); assay: HDAC biochemical activity measurement (fluorescent substrate deacetylation); conditions: 37° C. 30 minutes
T1 sequence (Q9BY41 1-377): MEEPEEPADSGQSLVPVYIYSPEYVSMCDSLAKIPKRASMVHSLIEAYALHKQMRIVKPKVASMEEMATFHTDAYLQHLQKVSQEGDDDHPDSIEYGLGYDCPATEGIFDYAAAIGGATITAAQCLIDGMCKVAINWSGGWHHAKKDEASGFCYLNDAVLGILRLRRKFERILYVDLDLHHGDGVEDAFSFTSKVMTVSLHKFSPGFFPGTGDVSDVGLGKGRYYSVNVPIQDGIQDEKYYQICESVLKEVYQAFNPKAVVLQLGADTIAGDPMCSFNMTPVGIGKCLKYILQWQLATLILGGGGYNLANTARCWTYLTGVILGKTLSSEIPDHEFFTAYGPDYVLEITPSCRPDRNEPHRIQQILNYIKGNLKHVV

HDAC7 = biological target: T2, HDAC7 (Homo sapiens, UniProt Q8WUI4); assay: as above; conditions: HDAC7; 37° C. 30 minutes;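 note: fluorogenic deacetylation assay using acetyl-lysine substrate at 20 µM, enzyme and compound incubated 30 min at 37 °C, then developer added, fluorescence read at 360/460 nm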
T2 sequence (Q8WUI4 1-952): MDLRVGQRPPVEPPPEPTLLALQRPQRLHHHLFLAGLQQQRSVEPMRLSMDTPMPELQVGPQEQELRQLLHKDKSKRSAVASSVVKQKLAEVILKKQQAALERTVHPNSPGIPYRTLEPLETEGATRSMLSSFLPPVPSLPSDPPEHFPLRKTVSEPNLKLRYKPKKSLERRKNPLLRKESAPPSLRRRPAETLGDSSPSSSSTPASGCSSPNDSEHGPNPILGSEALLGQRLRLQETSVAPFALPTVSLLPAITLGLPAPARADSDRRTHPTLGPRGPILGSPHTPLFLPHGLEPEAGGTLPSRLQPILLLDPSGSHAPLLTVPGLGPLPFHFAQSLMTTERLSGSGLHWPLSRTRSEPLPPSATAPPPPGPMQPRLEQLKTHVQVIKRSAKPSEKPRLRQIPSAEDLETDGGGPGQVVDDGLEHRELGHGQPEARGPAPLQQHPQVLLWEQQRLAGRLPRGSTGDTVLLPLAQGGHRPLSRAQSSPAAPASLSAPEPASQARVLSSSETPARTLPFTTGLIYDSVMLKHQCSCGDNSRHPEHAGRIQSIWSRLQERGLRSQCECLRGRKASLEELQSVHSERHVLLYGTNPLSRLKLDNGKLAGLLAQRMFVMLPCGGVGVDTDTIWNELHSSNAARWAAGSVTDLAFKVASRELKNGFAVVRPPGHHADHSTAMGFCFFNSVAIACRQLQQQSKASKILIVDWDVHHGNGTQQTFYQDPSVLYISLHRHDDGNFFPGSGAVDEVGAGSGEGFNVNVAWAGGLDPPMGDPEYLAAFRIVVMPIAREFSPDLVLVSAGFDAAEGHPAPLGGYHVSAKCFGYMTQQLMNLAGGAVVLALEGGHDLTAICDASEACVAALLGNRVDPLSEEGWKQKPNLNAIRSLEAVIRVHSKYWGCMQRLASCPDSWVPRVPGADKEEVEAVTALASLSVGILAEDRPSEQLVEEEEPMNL

HDAC3 = HDAC3 (Homo sapiens, UniProt O15379); assay: as above;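 note: fluorogenic acetyl-lysine substrate (20 µM) deacetylated by HDAC3, then developer added for 15 min at room temperature, release of fluorophore read at excitation 360 nm, emission 460 nm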
[10] = HDAC1, 37° C. 30 minutes, read-out: IC50 HDAC1
[11] = Homo sapiens, HT-1080, 72 h, HT1080 cells
[12] = Homo sapiens, BGC-823, 72 h, BGC-823 cells
[13] = Homo sapiens, MDA-MB-231, 72 h, read-out: GI50 MDA-MB-231, MTT, 72 hours incubation, MDA-MB-231 cells
[14] = Homo sapiens, HeLa, 72 h, Hela cells
[15] = read-out: IC50 HDAC3, HDAC3, 37° C. 30 minutes
[16] = Table 3, column C, read-out: IC50 HDAC1, C (six-membered ring with substituents)

Chain of HDAC1 (Q13547 whole entry, species assumed): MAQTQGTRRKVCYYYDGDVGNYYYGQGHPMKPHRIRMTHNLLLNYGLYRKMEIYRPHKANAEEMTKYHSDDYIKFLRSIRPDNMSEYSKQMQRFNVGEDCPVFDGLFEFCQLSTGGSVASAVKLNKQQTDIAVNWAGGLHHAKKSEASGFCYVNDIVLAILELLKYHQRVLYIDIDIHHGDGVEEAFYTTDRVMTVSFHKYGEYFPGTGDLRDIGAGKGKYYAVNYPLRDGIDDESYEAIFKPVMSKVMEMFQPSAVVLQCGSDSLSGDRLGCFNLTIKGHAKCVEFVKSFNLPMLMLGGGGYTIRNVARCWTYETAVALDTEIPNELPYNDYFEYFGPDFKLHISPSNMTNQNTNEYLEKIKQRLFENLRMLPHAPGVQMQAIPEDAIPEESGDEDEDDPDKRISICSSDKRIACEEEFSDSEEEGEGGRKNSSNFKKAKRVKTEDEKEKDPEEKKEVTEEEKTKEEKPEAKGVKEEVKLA
Chain of HDAC3 (O15379 whole entry, species assumed): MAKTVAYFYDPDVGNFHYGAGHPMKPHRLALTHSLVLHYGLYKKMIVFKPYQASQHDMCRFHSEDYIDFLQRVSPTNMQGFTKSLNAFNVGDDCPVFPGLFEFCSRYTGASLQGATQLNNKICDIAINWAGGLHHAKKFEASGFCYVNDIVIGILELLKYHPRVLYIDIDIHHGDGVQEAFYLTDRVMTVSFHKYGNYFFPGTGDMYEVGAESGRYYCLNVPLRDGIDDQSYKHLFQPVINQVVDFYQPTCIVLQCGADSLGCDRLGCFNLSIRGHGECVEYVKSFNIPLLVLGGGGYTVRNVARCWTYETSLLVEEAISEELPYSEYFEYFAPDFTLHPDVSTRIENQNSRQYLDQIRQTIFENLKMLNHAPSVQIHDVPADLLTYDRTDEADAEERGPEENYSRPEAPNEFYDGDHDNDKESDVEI
Chain of HDAC3 (Q9Y618 395-489 partner limits assumed, species assumed): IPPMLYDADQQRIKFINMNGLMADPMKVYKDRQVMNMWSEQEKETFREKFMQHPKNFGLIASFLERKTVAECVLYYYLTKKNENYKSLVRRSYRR

Row | Compound | IC50 (HDAC1; [10]) | GI50 ([1]; Homo sapiens, Huh-7, 72 h) | GI50 ([2]; Homo sapiens, KBM5, 72 h) | GI50 ([3]; Homo sapiens, SGC-7901, 72 h) | GI50 ([4]; Homo sapiens, 72 h) | GI50 [5, 11] | GI50 [6, 12] | GI50 ([7]; Homo sapiens, 72 h) | GI50 [8, 13] | GI50 [9, 14] | IC50 (HDAC8) | IC50 HDAC7 (HDAC7) | IC50 (HDAC3) | GI50 ([5]; Homo sapiens, HT-1080, 72 h) | GI50 ([9]; Homo sapiens, HeLa, 72 h) | IC50 (HDAC3; [15]) | GI50 ([6]; Homo sapiens, BGC-823, 72 h) | other results
1 | C/C=C1\NC(=O)c2ccc(SC)c(n2)CNC(=O)C[C@@H](/C=C/CCSC(C)=O)OC(=O)[C@H](CC)NC1=O [Compound 179] | 73 nM | 15 nM | 61 nM | 19 nM | 28 nM | 40 nM | 30 nM | 73 nM | 51 nM | 30 nM | 42 nM | no activity | 34 nM |  |  |  |  | 
2 | C/C=C1\NC(=O)c2cc(F)cc(n2)CNC(=O)C[C@@H](/C=C/CCSC(C)=O)OC(=O)[C@H](C(C)C)NC1=O [Compound 94] | 42 nM | 33 nM | 61 nM | 41 nM | 35 nM |  |  | 37 nM | 33 nM |  | 28 nM | no activity | 28 nM | 80 nM | 60 nM |  |  | GI50 [6]: 30 nM
3 | C/C=C1\NC(=O)c2cc(SCCC)cc(n2)CNC(=O)C[C@@H](/C=C/CCSC(=O)CCCCCCC)OC(=O)[C@H](CC)NC1=O [Compound 175] | 41 nM | 27 nM | 42 nM | 62 nM | 47 nM | 50 nM | 20 nM | 49 nM | 29 nM | 10 nM | 69 nM | no activity | 11 nM |  |  |  |  | 
4 | C/C=C1\NC(=O)c2nc(F)cc(n2)CNC(=O)C[C@@H](/C=C/CCSC(C)=O)OC(=O)[C@H](C(C)C)NC1=O [Compound 98] | 61 nM |  |  |  |  |  |  |  |  |  | 61 nM | no activity |  |  |  | 62 nM |  | GI50 [1]: 28 nM; GI50 [2]: 29 nM; GI50 [3]: 36 nM; GI50 [4]: 58 nM; GI50 [5]: 80 nM; GI50 [6]: 50 nM; GI50 [7]: 21 nM; GI50 ([8]; read-out: GI50 MDA-MB-231, MTT, 72 hours incubation, MDA-MB-231 cells): 37 nM; GI50 [9]: 50 nM
5 | C/C=C1\NC(=O)c2cc(F)cc(n2)CNC(=O)C[C@@H](/C=C/CCSC(C)=O)OC(=O)[C@H](CC)NC1=O [Compound 58] | 32 nM | 39 nM | 69 nM | 51 nM | 82 nM |  |  | 61 nM | 39 nM |  | 51 nM | no activity |  | 40 nM | 60 nM | 29 nM | 60 nM | IC50 (HDAC1; [16]): 32 nM
6 | C/C=C1\NC(=O)c2nc(ccc2F)CNC(=O)C[C@@H](/C=C/CCSC(=O)CCCCC)OC(=O)[C@H](C(C)C)NC1=O [Compound 36] | 11 nM | 43 nM | 61 nM | 47 nM | 57 nM |  |  | 39 nM | 43 nM |  | 35 nM | no activity |  | 60 nM | 60 nM | 37 nM | 30 nM | IC50 (HDAC1; [16]): 11 nM
7 | C/C=C1\NC(=O)c2cc(SC)cc(n2)CNC(=O)C[C@@H](/C=C/CCSC=O)OC(=O)[C@H](C(C)C)NC1=O [Compound 169] | 72 nM | 61 nM | 51 nM | 62 nM | 47 nM | 60 nM | 60 nM | 55 nM | 35 nM | 20 nM | 15 nM | no activity | 16 nM |  |  |  |  | 
8 | C/C=C1\NC(=O)c2cccc(n2)CNC(=O)C[C@@H](/C=C/CCSC(C)=O)OC(=O)[C@H](CCCCN)NC1=O [Compound 15] | 191 nM | 73 nM | 95 nM | 53 nM | 16 nM |  |  | 29 nM | 91 nM |  | 43 nM | no activity |  | 38700 nM | 15700 nM | 57 nM | 1220 nM | IC50 (HDAC1; Table 3, read-out: IC50 HDAC1, D (non-substituent)): 191 nM

— patent publication US10065990B2, “Cyclic peptide compound, and preparation method, pharmaceutical composition and use thereof” (HANGZHOU GUANYU BIO-MEDICAL CO., LTD, priority 2013, dated 2018)
